Target: T1, FXR ligand binding domain (GST-FXR LBD fusion protein, human FXR aa 193-473) (Homo sapiens, UniProt Q96RI1)
T1 construct: fused on or other part: Glutathione-S-transferase (GST) fused N-terminally to the FXR LBD, used to capture the protein on glutathione SPA beads
T1 sequence (Q96RI1 211-486 limits assumed): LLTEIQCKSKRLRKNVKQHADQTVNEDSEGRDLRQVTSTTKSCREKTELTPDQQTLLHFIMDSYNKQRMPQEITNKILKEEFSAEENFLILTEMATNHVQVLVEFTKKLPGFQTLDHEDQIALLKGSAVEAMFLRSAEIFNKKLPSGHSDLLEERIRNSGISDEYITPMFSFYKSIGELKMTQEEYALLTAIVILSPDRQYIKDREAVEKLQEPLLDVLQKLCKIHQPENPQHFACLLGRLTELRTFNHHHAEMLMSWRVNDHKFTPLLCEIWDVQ
Assay: Radioligand binding assay (scintillation proximity, radioligand displacement)
Conditions: 40 nM GST-FXR LBD on SPA beads, test compound 6×10^−9 M to 2.5×10^−5 M, read-out: h-IC50 Binding
Procedure, shortened: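 40 nM GST-FXR LBD, E. coli-expressed, bound to glutathione yttrium silicate SPA beads in 50 mM Hepes pH 7.4, 10 mM NaCl, 5 mM MgCl2, 0.01% CHAPS. Test compounds displace radioligand (e.g. 20 nM benzimidazolyl-acetamide ligand); bound ligand measured by scintillation proximity counting.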

Point of comparison: Cc1cc(Cl)ccc1-c1nc2cc(F)c(F)cc2n1C(COc1c(F)cc(C(=O)O)cc1F)C1CCCCC1 (single isomer, unassigned; (+)) [Example 126, (+)-4-{2-[2-(4-Chloro-2-methyl-phenyl)-5,6-difluoro-benzoimidazol-1-yl]-2-cyclohexyl-ethoxy}-3,5-difluoro-benzoic acid], IC50 30 nM. Against it:
- O=C(O)c1c(F)cc(OCC(C2CCCCC2)n2c(-c3ccc(Cl)cc3)nc3cc(F)c(F)cc32)cc1F (single isomer, unassigned; (+)) [Example 43, (+)-4-{2-[2-(4-Chloro-phenyl)-5,6-difluoro-benzoimidazol-1-yl]-2-cyclohexyl-ethoxy}-2,6-difluoro-benzoic acid] — 23-fold higher, 700 nM
- Cc1cc(C(=O)O)cc(C)c1OCC(C1CCCCC1)n1c(-c2ccc(Cl)cc2)nc2ccccc21 (single isomer, unassigned; (-)) [Example 106, (−)-4-{2-[2-(4-Chloro-phenyl)-benzoimidazol-1-yl]-2-cyclohexyl-ethoxy}-3,5-dimethyl-benzoic acid] — 3.3-fold higher, 100 nM
- COc1ccc(-c2nc3cc(F)c(F)cc3n2C(CCc2ccc(C(=O)O)cc2)C2CCCCC2)c(OC)n1 (stereo not drawn) [Example 145, 4-{3-Cyclohexyl-3-[2-(2,6-dimethoxy-pyridin-3-yl)-5,6-difluoro-benzoimidazol-1-yl]-propyl}-benzoic acid] — 100-fold lower, 0.3 nM
- O=C(O)c1cc(F)c(OCC(C2CCCCC2)n2c(-c3ccc(Cl)cc3)nc3cc(F)c(F)cc32)c(Cl)c1 (stereo not drawn) [Example 76, 3-Chloro-4-{2-[2-(4-chloro-phenyl)-5,6-difluoro-benzoimidazol-1-yl]-2-cyclohexyl-ethoxy}-5-fluoro-benzoic acid] — 7.5-fold lower, 4 nM
- O=C(O)c1cnc(OCC(C2CCCCC2)n2c(-c3ccc(Cl)cc3)nc3cc(F)c(F)cc32)c2ccsc12 (single isomer, unassigned; (-)) [Example 28, (−)-4-{2-[2-(4-Chloro-phenyl)-5,6-difluoro-benzoimidazol-1-yl]-2-cyclohexyl-ethoxy}-thieno[3,2-c]pyridine-7-carboxylic acid] — within 1.5-fold, 40 nM
- O=C(O)c1ccc(OCC(C2CCCCC2)n2c(-c3ccc(Cl)cc3)nc3cc(F)c(F)cc32)nc1 (single isomer, unassigned; (-)) [Example 21, (−)-6-{2-[2-(4-Chloro-phenyl)-5,6-difluoro-benzoimidazol-1-yl]-2-cyclohexyl-ethoxy}-nicotinic acid] — 20-fold higher, 600 nM
- O=C(O)c1cccc(OCC(C2CCCCC2)n2c(-c3ccc(Cl)cc3)nc3cc(F)c(F)cc32)c1 (stereo not drawn) [Example 15, 3-{2-[2-(4-Chloro-phenyl)-5,6-difluoro-benzoimidazol-1-yl]-2-cyclohexyl-ethoxy}-benzoic acid] — 2.3-fold higher, 70 nM
- O=C(O)c1c(F)cc(OCC(C2CCCCC2)n2c(-c3ccc(Cl)cc3)nc3cc(F)c(F)cc32)cc1F (stereo not drawn) [Example 42, 4-{2-[2-(4-Chloro-phenyl)-5,6-difluoro-benzoimidazol-1-yl]-2-cyclohexyl-ethoxy}-2,6-difluoro-benzoic acid] — 6.7-fold higher, 200 nM
- Fc1cc2nc(-c3ccc(Cl)cc3)n(C(COc3ccc(-c4nnn[nH]4)cc3F)C3CCCCC3)c2cc1F (stereo not drawn) [Example 66, 2-(4-Chloro-phenyl)-1-{1-cyclohexyl-2-[2-fluoro-4-(1H-tetrazol-5-yl)-phenoxy]-ethyl}-5,6-difluoro-1H-benzoimidazole] — 3-fold lower, 10 nM
- Cc1cc(C(=O)O)ccc1OCC(C1CCCCC1)n1c(-c2ccc(Cl)cc2)nc2cc(F)c(F)cc21 (stereo not drawn) [Example 11, 4-{2-[2-(4-Chloro-phenyl)-5,6-difluoro-benzoimidazol-1-yl]-2-cyclohexyl-ethoxy}-3-methyl-benzoic acid] — 1.5-fold lower, 20 nM
- Fc1cc(-c2nnn[nH]2)cc(F)c1OCC(C1CCCCC1)n1c(-c2ccc(Cl)cc2)nc2ccccc21 (stereo not drawn) [Example 128, 2-(4-Chloro-phenyl)-1-{1-cyclohexyl-2-[2,6-difluoro-4-(1H-tetrazol-5-yl)-phenoxy]-ethyl}-1H-benzoimidazole] — 1.5-fold lower, 20 nM
- O=C(O)c1ccc(S(=O)(=O)CC(C2CCCCC2)n2c(-c3ccc(Cl)cc3)nc3cc(F)c(F)cc32)cc1 (stereo not drawn) [Example 141, 4-{2-[2-(4-Chloro-phenyl)-5,6-difluoro-benzoimidazol-1-yl]-2-cyclohexyl-ethanesulfonyl}-benzoic acid] — 270-fold higher, 8200 nM
- O=C(O)c1cnc(OCC(C2CCCCC2)n2c(-c3ccc(Cl)cc3)nc3cc(F)c(F)cc32)c(Cl)c1 (single isomer, unassigned; (-)) [Example 24, (−)-5-Chloro-6-{2-[2-(4-chloro-phenyl)-5,6-difluoro-benzoimidazol-1-yl]-2-cyclohexyl-ethoxy}-nicotinic acid] — 1.5-fold lower, 20 nM
- Cc1cc(C(=O)O)cc(C)c1OCC(C1CCCCC1)n1c(-c2ccc(Cl)cc2)nc2cc(F)c(F)cc21 (stereo not drawn) [Example 53, 4-{2-[2-(4-Chloro-phenyl)-5,6-difluoro-benzoimidazol-1-yl]-2-cyclohexyl-ethoxy}-3,5-dimethyl-benzoic acid] — the same, 30 nM
- CC(C)(Oc1ccc(-c2nnn[nH]2)cc1)C(C1CCCCC1)n1c(-c2ccc(Cl)cc2)nc2cc(F)c(F)cc21 (single isomer, unassigned; (-)) [Example 88, (−)-2-(4-Chloro-phenyl)-1-{1-cyclohexyl-2-methyl-2-[4-(1H-tetrazol-5-yl)-phenoxy]-propyl}-5,6-difluoro-1H-benzoimidazole] — 10-fold lower, 3 nM
- Cc1ccc(C(=O)O)cc1OCC(C1CCCCC1)n1c(-c2ccc(Cl)cc2)nc2cc(F)c(F)cc21 (stereo not drawn) [Example 16, 3-{2-[2-(4-Chloro-phenyl)-5,6-difluoro-benzoimidazol-1-yl]-2-cyclohexyl-ethoxy}-4-methyl-benzoic acid] — 6.7-fold higher, 200 nM
- O=C(O)c1ccc(OCC(C2CCCCC2)n2c(-c3ccc(Cl)cc3)nc3cc(F)c(F)cc32)c(C(F)(F)F)c1 (single isomer, unassigned; (+)) [Example 40, (+)-4-{2-[2-(4-Chloro-phenyl)-5,6-difluoro-benzoimidazol-1-yl]-2-cyclohexyl-ethoxy}-3-trifluoromethyl-benzoic acid] — 3.3-fold higher, 100 nM
- Cc1cc(-c2nnn[nH]2)cc(C)c1OCC(C1CCCCC1)n1c(-c2ccc(Cl)cc2)nc2cc(F)c(F)cc21 (single isomer, unassigned; (+)) [Example 72, (+)-2-(4-Chloro-phenyl)-1-{1-cyclohexyl-2-[2,6-dimethyl-4-(1H-tetrazol-5-yl)-phenoxy]-ethyl}-5,6-difluoro-1H-benzoimidazole] — 30-fold lower, 1 nM
- O=C(O)c1ccc(COCC(C2CCCCC2)n2c(-c3ccc(Cl)cc3)nc3cc(F)c(F)cc32)c(F)c1 (single isomer, unassigned; (-)) [Example 65, (−)-4-{2-[2-(4-Chloro-phenyl)-5,6-difluoro-benzoimidazol-1-yl]-2-cyclohexyl-ethoxymethyl}-3-fluoro-benzoic] — 6.7-fold higher, 200 nM
- Fc1cc2nc(-c3ccc(Cl)cc3)n([C@H](COCC3CCCCC3)C3CCCCC3)c2cc1F [Example 3, (+)-2-(4-Chloro-phenyl)-1-((S)-1-cyclohexyl-2-cyclohexylmethoxy-ethyl)-5,6-difluoro-1H-benzoimidazole] — 1100-fold higher, 32100 nM
- COc1ccc(-c2nc3cc(F)c(F)cc3n2C(COc2c(C)cc(-c3nnn[nH]3)cc2C)C2CCCCC2)c(OC)n1 (single isomer, unassigned; (+)) [Example 100, (+)-1-{1-Cyclohexyl-2-[2,6-dimethyl-4-(1H-tetrazol-5-yl)-phenoxy]-ethyl}-2-(2,6-dimethoxy-pyridin-3-yl)-5,6-difluoro-1H-benzoimidazole] — 1.5-fold lower, 20 nM
- Cc1c(OCC(C2CCCCC2)n2c(-c3ccc(Cl)cc3)nc3cc(F)c(F)cc32)cccc1C(=O)O (stereo not drawn) [Example 17, 3-{2-[2-(4-Chloro-phenyl)-5,6-difluoro-benzoimidazol-1-yl]-2-cyclohexyl-ethoxy}-2-methyl-benzoic acid] — 6.7-fold higher, 200 nM
- COc1ccc(-c2nc3cc(F)c(F)cc3n2C(COc2c(C)cc(C(=O)O)cc2C)C2CCCCC2)c(OC)n1 (single isomer, unassigned; (+)) [Example 83, (+)-4-{2-Cyclohexyl-2-[2-(2,6-dimethoxy-pyridin-3-yl)-5,6-difluoro-benzoimidazol-1-yl]-ethoxy}-3,5-dimethyl-benzoic acid] — 150-fold lower, 0.2 nM
- O=C(O)c1ccc(OCC(C2CCCCC2)n2c(-c3ccc(Cl)cc3)nc3ccccc32)cc1 (stereo not drawn) [Example 32, 4-{2-[2-(4-Chloro-phenyl)-benzoimidazol-1-yl]-2-cyclohexyl-ethoxy}-benzoic acid] — 33-fold higher, 1000 nM
- CC(C)(Oc1ccc(OCC(C2CCCCC2)n2c(-c3ccc(Cl)cc3)nc3cc(F)c(F)cc32)cc1)C(=O)O (stereo not drawn) [Example 90, 2-(4-{2-[2-(4-Chloro-phenyl)-5,6-difluoro-benzoimidazol-1-yl]-2-cyclohexyl-ethoxy}-phenoxy)-2-methyl-propionic acid] — 6.7-fold higher, 200 nM

Same assay, conditions: h-IC50 Binding, 40 nM GST-FXR LBD on SPA beads, test compound 6×10^−9 M to 2.5×10^−5 M

O=C(O)c1ccc(OCC(C2CCCCC2)n2c(-c3ccc(Cl)cc3)nc3cc(F)c(F)cc32)c(F)c1 (single isomer, unassigned; (-)) [Example 8, (−)-4-{2-[2-(4-Chloro-phenyl)-5,6-difluoro-benzoimidazol-1-yl]-2-cyclohexyl-ethoxy}-3-fluoro-benzoic acid] showed an IC50 of 20 nM.
